Measurements taken from patent US9309247B2, “2-substituted imidazo[4,5-D]phenanthroline derivatives and their use in the treatment of cancer” (Aptose Biosciences Inc., priority 2013, dated 2016).
Read-outs that look alike come from different tables or passages of the source.

What was measured:
[1] = tested on: human prostate cancer cell DU14; test: XTT cell proliferation assay, DU14; assay type: cell-based; conditions: 5 days incubation, read-out: Antiproliferative activity, Pros. DU14
Procedure: (§1) Exemplary compounds 1-8 were tested for anti-cancer activity in vitro using human renal cancer cells (ACHN and CAK-1), human pancreatic cells (BXPC3 and SU-86-86), human prostate cancer cell (DU14), human colon carcinoma cells (HT-29 and KM-12), leukemia cells (HL60), brain cancer/tumour cells (SK-A-AS, U87-MG), and human non-small cell lung cancer cells (H460). Compounds 1-8 are the specific embodiments of Formula (I) and Formula (IV) as described above in this application.
(§2) The cells were maintained as a monolayer in a growth medium; McCoy's 5A modified medium (Sigma, St. Louis, Mo.), supplemented with 2 mM L-glutamine (Gibco, Grand Island, N.Y.), 10% fetal bovine serum (FBS) (Multicell, WISENT Inc. St-Bruno, QC), antibiotic-antimycotic (Multicell), at 37° C. in a 5% CO2-humidified incubator. Cells were transferred onto 150 mm tissue culture plates and grown until sub-confluency (70-80%) prior to their use. The in vitro antiproliferative activity of compounds was evaluated by incubating the cells with varying concentrations of exemplary compounds as shown in Table 1 for 5 days. The efficacy of these compounds in this cell proliferation assay was measured based in the ability of live cells to reduce the tetrazolium salt XTT to orange colored compounds of formazan (XTT cell proliferation kit IT, Roche Applied Science, Montreal, QC).

[2] = tested on: human Burkitt's lymphoma Ramos cells; test: Cell growth inhibition assay, Ramos; assay type: cell-based; conditions: five days of incubation, XTT; read-out: IC50 Ramos (hs)
Procedure: (§3) In this study, compounds 1-8 were screened in vitro against a panel of four mouse lymphoma cell lines and two human lymphoma cell line for cell growth inhibition activity. Following treatment, half maximal inhibitory concentrations (IC50) were determined with the objective of selecting the most efficacious compounds for evaluation of in vitro absorption, distribution, metabolism, and excretion (ADME) screening.
(§4) Similarly, human Burkitt's lymphoma Ramos cells (ATCC CRL-1596) were grown in suspension in Roswell Park Memorial Institute (RPMI) 1640 medium supplemented with 10% fetal bovine serum (FBS), 10 mM HEPES KOH pH 7.4, and 2 mM sodium pyruvate. Mouse P388D1 (ATCC CCL-46) and WR19L (ATCC TIB-52) cells were grown in suspension in Dulbecco's Modified Eagle Medium (DMEM) with 10% fetal bovine serum (FBS), 10 mM HEPES, and 2 mM sodium pyruvate. Mouse WEHI231 (ATCC CRL-1702) and EL4 (ATCC TIB-39) cells were grown in suspension in DMEM with 10% fetal bovine serum (FBS), 10 mM HEPES KOH pH 7.4, 2 mM sodium pyruvate, and 0.05 mM β-mercaptoethanol. All cells were maintained at 37° C. in an atmosphere of 5% CO2 in air. Logarithmically growing cells were routinely sub-cultured twice weekly. Briefly, cells were collected by centrifugation, resuspended in pre-warmed media, and diluted 1:10 into a 75 cm^2 flask.
(§5) Cells were subcultured and 4×10^3 cells (in 50 μL) were transferred to each well in a Falcon 96-well tissue culture plate. Exemplary compounds were dissolved in pure dimethyl sulphoxide (DMSO) at a concentration of 10 mM. From this 10 mM stock solution, 12 successive serial dilutions were made in DMSO (2.5 fold dilutions), ranging from 0.52 μM to 10 mM. Using these stock dilutions, 5 μL of each were added to 500 μL of media, and 50 μL of this was added to the cells. The final concentrations being tested ranged from 0.0026 μM to 50 μM. Each concentration was tested in triplicate, and DMSO and untreated cells were also included as controls. After five days of incubation with the compounds, cell viability was determined using the XTT cell proliferation kit (Roche, Cat. No. 11 465 015 001). Following the XTT protocol, 4.5-24 hours after addition of the reagent, the plates were read in a μQuant 96-well plate spectrophotometer (Biotek Instruments Inc.) and the results analyzed to determine the IC50.

[3] = tested on: panel of human and mouse lymphoma cell lines; test: Cell growth inhibition, whole lymphoma panel (mean IC50, mean rank); assay type: cell-based; conditions: mean over six lymphoma cell lines
Procedure: as §3, §5
In vitro potency was assessed using eight exemplary compounds against a panel of human and mouse lymphoma cell lines (Table 4). […] To compare the efficacy of the compounds in cell growth inhibition across the entire panel of cell lines screened, the eight compounds were ranked according to efficacy against each cell line with a numerical value of one indicating most efficacious (lowest IC50 value) and eight being the least efficacious (highest IC50 value).

[4] = tested on: Human Burkitt's lymphoma Raji cells; test: Cell growth inhibition assay, Raji; assay type: cell-based; conditions: five days of incubation, XTT; read-out: IC50 Raji (hs)
Procedure: as §3
Human Burkitt's lymphoma Raji cells (ATCC CCL-86) were grown in suspension in Roswell Park Memorial Institute (RPMI) 1640 medium supplemented with 10% fetal bovine serum (FBS), 10 mM HEPES KOH pH 7.4, and 2 mM sodium pyruvate at 37° C. in an atmosphere of 5% CO2 in air. Logarithmically growing cells were routinely sub-cultured twice weekly. Briefly, cells were collected by centrifugation, resuspended in pre-warmed media, and diluted 1:10 into a 75 cm^2 flask.
as §5

EL4 (mouse, lymphoma) = test: Cell growth inhibition assay, EL4; assay type: cell-based; conditions: five days of incubation, XTT; read-out: IC50 EL4 (ms)
Procedure: as §3, §4, §5

[5] = tested on: brain cancer/tumour cells U87-MG; test: XTT cell proliferation assay, U87-MG; assay type: cell-based, human; conditions: 5 days incubation, read-out: Antiproliferative activity, Brain U87-MG
Procedure: as §1, §2

P388D1 (mouse, lymphoma) = test: Cell growth inhibition assay, P388D1; assay type: cell-based; conditions: five days of incubation, XTT; read-out: IC50 P388D1 (ms)
Procedure: as §3, §4, §5

[6] = tested on: WEHI 231 (mouse, B-cell lymphoma); test: Cell growth inhibition assay, WEHI231; assay type: cell-based; conditions: five days of incubation, XTT; read-out: IC50 WEHI231 (ms)
Procedure: as §3, §4, §5

WR19L (mouse, lymphoma) = test: Cell growth inhibition assay, WR19L; assay type: cell-based; conditions: five days of incubation, XTT; read-out: IC50 WR19L (ms)
Procedure: as §3, §4, §5

[7] = tested on: non-small cell lung cancer cells HOP-92; test: XTT cell proliferation assay, HOP-92; assay type: cell-based, human; conditions: 5 days incubation, read-out: Antiproliferative activity, NSCLC HOP-92
Procedure: [The procedure below names another cell line; the source lists this cell line under the same test.] as §1, §2

leukemia cells HL60 = test: XTT cell proliferation assay, HL60; assay type: cell-based, human; conditions: 5 days incubation, read-out: Antiproliferative activity, Leuk. HL60
Procedure: as §1, §2

[8] = tested on: human pancreatic cells BXPC3; test: XTT cell proliferation assay, BXPC3; assay type: cell-based; conditions: 5 days incubation, read-out: Antiproliferative activity, Pancreas BXPC3
Procedure: as §1, §2

[9] = tested on: human colon carcinoma cells KM12; test: XTT cell proliferation assay, KM12; assay type: cell-based; conditions: 5 days incubation, read-out: Antiproliferative activity, Colon KM12
Procedure: as §1, §2

[10] = tested on: human colon carcinoma cells HT-29; test: XTT cell proliferation assay, HT-29; assay type: cell-based; conditions: 5 days incubation, read-out: Antiproliferative activity, Colon HT-29
Procedure: as §1, §2

[11] = tested on: non-small cell lung cancer cells H226; test: XTT cell proliferation assay, H226; assay type: cell-based, human; conditions: 5 days incubation, read-out: Antiproliferative activity, NSCLC H226
Procedure: [The procedure below names another cell line; the source lists this cell line under the same test.] as §1, §2

[12] = tested on: human renal cancer cells ACHN; test: XTT cell proliferation assay, ACHN; assay type: cell-based; conditions: 5 days incubation, read-out: Antiproliferative activity, Kidney ACHN
Procedure: as §1, §2

[13] = tested on: human renal cancer cells CAKI-1; test: XTT cell proliferation assay, CAKI-1; assay type: cell-based; conditions: 5 days incubation, read-out: Antiproliferative activity, Kidney CAKI-1
Procedure: as §1, §2

[14] = tested on: non-small cell lung cancer cells EKVX; test: XTT cell proliferation assay, EKVX; assay type: cell-based, human; conditions: 5 days incubation, read-out: Antiproliferative activity, NSCLC EKVX
Procedure: [The procedure below names another cell line; the source lists this cell line under the same test.] as §1, §2

[15] = tested on: human pancreatic cells SU-86-86; test: XTT cell proliferation assay, SU-86-86; assay type: cell-based; conditions: 5 days incubation, read-out: Antiproliferative activity, Pancreas SU-86-86
Procedure: as §1, §2

[16] = tested on: non-small cell lung cancer cells HOP-62; test: XTT cell proliferation assay, HOP-62; assay type: cell-based, human; conditions: 5 days incubation, read-out: Antiproliferative activity, NSCLC HOP-62
Procedure: [The procedure below names another cell line; the source lists this cell line under the same test.] as §1, §2

[17] = tested on: human non-small cell lung cancer cells H460; test: XTT cell proliferation assay, H460; assay type: cell-based; conditions: 5 days incubation, read-out: Antiproliferative activity, NSCLC H460
Procedure: as §1, §2

[18] = tested on: brain cancer/tumour cells SK-N-AS; test: XTT cell proliferation assay, SK-N-AS; assay type: cell-based, human; conditions: 5 days incubation, read-out: Antiproliferative activity, Brain SK-N-AS
Procedure: as §1, §2

Row | Structure (SMILES) | IC50 [1] | IC50 [2] | IC50 [3] | IC50 [4] | IC50 (EL4 (mouse, lymphoma)) | IC50 [5] | IC50 (P388D1 (mouse, lymphoma)) | IC50 [6] | IC50 (WR19L (mouse, lymphoma)) | IC50 [7] | IC50 (leukemia cells HL60) | IC50 [8] | IC50 [9] | IC50 [10] | IC50 [11] | IC50 [12] | IC50 [15] | IC50 [16] | IC50 [17] | IC50 [18] | further results
1 | FC1(F)Oc2ccc(-c3nc4c5cccnc5c5ncccc5c4[nH]3)cc2O1 [Compound 2] | 220 nM | 150 nM | 189 nM | 166 nM | 384 nM | 180 nM | 400 nM | 5.1 nM | 31 nM | 170 nM | 380 nM | 180 nM | 220 nM | 300 nM | 430 nM | 170 nM | – | – | – | – | –
2 | FC1(F)Oc2ccc(-c3nc4c5cccnc5c5ncccc5c4[nH]3)cc2O1 [Compound 3] | 170 nM | 139 nM | 205 nM | 197 nM | 451 nM | 154 nM | 377 nM | 4.2 nM | 59 nM | 170 nM | 150 nM | 180 nM | 230 nM | 220 nM | 390 nM | 170 nM | – | – | – | – | –
3 | FC1(F)Oc2ccc(-c3nc4c5cccnc5c5ncccc5c4[nH]3)cc2O1 [Compound 4] | 150 nM | 58 nM | 142 nM | 54 nM | 486 nM | 180 nM | 243 nM | 6.4 nM | 5.8 nM | 170 nM | 170 nM | 170 nM | 180 nM | 300 nM | 390 nM | 127 nM | 26 nM | 170 nM | 160 nM | 190 nM | IC50 [13]: 170 nM; IC50 ([14]; Homo sapiens, EKVX, 120 h): 160 nM
4 | FC1(F)Oc2ccc(-c3nc4c5cccnc5c5ncccc5c4[nH]3)cc2O1 [Compound 5] | 180 nM | 75 nM | 190 nM | 109 nM | 518 nM | 180 nM | 414 nM | 12.6 nM | 9.3 nM | 170 nM | 110 nM | 200 nM | 280 nM | 170 nM | 190 nM | 130 nM | 28 nM | 210 nM | 140 nM | 90 nM | IC50 [14]: 150 nM
5 | FC1(F)Oc2ccc(-c3nc4c5cccnc5c5ncccc5c4[nH]3)cc2O1 [Compound 8] | 150 nM | 34 nM | 69 nM | 25 nM | 199 nM | 190 nM | 146 nM | 3 nM | 5.1 nM | 160 nM | 110 nM | 210 nM | 583 nM | 285 nM | 710 nM | 203 nM | – | – | – | – | –
